Legend:
Type in all cases: cell-based
α4β1 integrin = α4β1 integrin (Homo sapiens (Human), UniProt P05556+P13612); assay: VCAM-1/α4β1 integrin binding inhibitory activity evaluation test (Jurkat cell adhesion to VCAM-1/Fc); conditions: Jurkat cells binding to recombinant human VCAM-1/Fc
Protocol: The ability of test substances to inhibit the binding of a human T-cell line, Jurkat, which is known to express α4β1 integrin, to VCAM-1 was measured. To 96-well microtiter plates, recombinant human VCAM-1/Fc (R&D systems) solution (1 μg/mL) diluted with buffer A (carbonate buffer, pH 9.6) was added at 50 μL/well, followed by incubation at 4° C. overnight. After washing once with PBS, Block Ace (Snow Brand Milk Products Company, Limited) was added at 150 μL/well, followed by incubation at room temperature for 2 hours. After removal, washing was conducted once with PBS. 100 μL of each test substance diluted with a binding buffer (DMEM containing 40 mM HEPES, 0.2% BSA, and 4 mM MnCl2) to various concentrations and 100 μL of the Jurkat cells (2×10^6 cell/mL) were added to the plates coated with VCAM-1/Fc (5×10^5 cells/well), followed by incubation at 30° C. for 15 minutes to 60 minutes. After the cells were bound to each well, unbound cells were removed by washing with PBS. To the plates, buffer C (PBS containing 1.5% Triton X-100) was added at 50 μL/well to lyse the bound Jurkat cells. To 30 μL of the cell lysate, 30 μL of Substrate Buffer (Promega, CytoTox 96 Non-Radioactive Cytotoxicity Assay) was added, and the reaction was allowed to proceed at room temperature in a dark place for 30 minutes. To each well, 30 μL of Stop Solution (Promega, CytoTox 96 Non-Radioactive Cytotoxicity Assay) was added, and the absorbance at 490 nm was measured by using a plate reader. Here, by the obtained absorbance, the activity of the lactate dehydrogenase (LDH) dissolved into the supernatant of each well was detected. In other words, the absorbance was proportional to the number of the Jurkat cells bound to VCAM-1 and remaining on the plate. The test was duplicated. The binding ratios of the cells at various concentrations were determined, with the absorbance of a well containing no test substances taken as 100%. Then, the concentration IC50, at which 50% binding inhibition was achieved, was calculated. […] Note that, among the compounds synthesized in the corresponding Examples, the compounds in the free form (Compounds A-1 to A-39) were used as the test compounds. Hereinafter, the same shall apply.

α4β7 integrin [1] = target: T1, α4β7 integrin (Homo sapiens (Human), UniProt P13612+P26010); assay: MAdCAM-1/α4β7 integrin binding inhibitory activity evaluation test (RPMI-8866 cell adhesion to MAdCAM-1/Fc); conditions: for Selectivity: IC50 in VCAM-1/α4β1 test divided by IC50 in MAdCAM-1/α4β7 test; for IC50: RPMI-8866 cells binding to recombinant mouse MAdCAM-1/Fc, no serum
Protocol: The ability of test substances to inhibit the binding of a human B cell line, RPMI-8866, which is known to express α4β7 integrin, to MAdCAM-1 was measured. To 96-well microtiter plates, recombinant mouse MAdCAM-1/Fc (R&D systems) solution (0.75 μg/mL) diluted with buffer A (carbonate buffer solution, pH 9.6) was added at 50 μL/well, followed by incubation at 4° C. overnight. After washing once with PBS, Block Ace (Snow Brand Milk Products Company, Limited) was added at 150 μL/well, followed by incubation at room temperature for 2 hours. After removal, washing was conducted once with PBS. 100 μL of each test substance diluted with binding buffer (DMEM containing 40 mM HEPES, 0.2% BSA, and 4 mM MnCl2) to various concentrations and 100 μL of RPMI-8866 cells (2×10^6 cell/mL) were added to the plates coated with MAdCAM-1/Fc (5×10^5 cells/well), followed by incubation at 30° C. for 15 minutes to 60 minutes. After the cells were bound to each well, unbound cells were removed by washing with PBS. To the plates, buffer C (PBS containing 1.5% Triton X-100) was added at 50 μL/well to lyse the bound RPMI-8866 cells. To 30 μL of the cell lysate, 30 μL of Substrate Buffer (Promega, CytoTox 96 Non-Radioactive Cytotoxicity Assay) was added, and the reaction was allowed to proceed at room temperature in a dark place for 30 minutes. To each well, 30 μL of Stop Solution (Promega, CytoTox 96 Non-Radioactive Cytotoxicity Assay) was added, and the absorbance at 490 nm was measured by using a plate reader. Here, by the obtained absorbance, the activity of the lactate dehydrogenase (LDH) dissolved into the supernatant of each well was detected. In other words, the absorbance was proportional to the number of the RPMI-8866 cells bound to MAdCAM-1 and remaining on the plate. The test was duplicated. The binding ratios of the cells at various concentrations were determined, with the absorbance of a well containing no test substance taken as 100%. Then, the concentration IC50, at which 50% binding inhibition was achieved, was calculated. […] Note that the selectivity in the table was determined by dividing the IC50 value in VCAM-1/α4β1 Integrin Binding Inhibitory Activity Evaluation Test by the IC50 value in the MAdCAM-1/α4β7 integrin binding inhibitory activity evaluation test.

α4β7 integrin [2] = target: T1, α4β7 integrin; assay: MAdCAM-1/α4β7 integrin binding inhibitory activity evaluation test in the presence of serum (1); conditions: RPMI-8866 cells binding to mouse MAdCAM-1/Fc, human serum at final concentration of 50%; read-out: α4β7 with serum added, IC50
Protocol: The ability of test substances to inhibit the binding of a human B cell line, RPMI-8866, which is known to express α4β7 integrin, to MAdCAM-1 was measured. To 96-well microtiter plates, recombinant mouse MAdCAM-1/Fc (R&D systems) solution (1 μg/mL) diluted with buffer A (carbonate buffer, pH 9.6) was added at 50 μL/well, followed by incubation at 4° C. overnight. After washing once with PBS, Block Ace (Snow Brand Milk Products Company, Limited) was added at 150 μL/well, followed by incubation at room temperature for 2 hours. After removal, washing was conducted once with PBS. 100 μL of each test substance diluted with a binding buffer (DMEM containing 40 mM HEPES, 0.2% BSA, and 4 mM MnCl2) to various concentrations and 100 μL of RPMI-8866 cells (2×10^6 cell/mL) were added to plates coated with MAdCAM-1/Fc (5×10^5 cells/well) with human serum being contained at a final concentration of 50%, followed by incubation at 30° C. for 15 minutes to 60 minutes. After the cells were bound to each well, unbound cells were removed by washing with PBS. To the plates, buffer C (PBS containing 1.5% Triton X-100) was added at 50 μL/well to lyse the bound RPMI-8866 cells. To 30 μL of the cell lysate, 30 μL of Substrate Buffer (Promega, CytoTox 96 Non-Radioactive Cytotoxicity Assay) was added, and the reaction was allowed to proceed at room temperature in a dark place for 30 minutes. To each well, 30 μL of Stop Solution (Promega, CytoTox 96 Non-Radioactive Cytotoxicity Assay) was added, and the absorbance at 490 nm was measured by using a plate reader. Here, by the obtained absorbance, the activity of the lactate dehydrogenase (LDH) dissolved into the supernatant of each well was detected. In other words, the absorbance was proportional to the number of the RPMI-8866 cells bound to MAdCAM-1 and remaining on the plate. The test was duplicated. The binding ratios of the cells at various concentrations were determined, with the absorbance of a well containing no test substance taken as 100%. Then, the concentration IC50, at which 50% binding inhibition was achieved, was calculated.

Chain of α4β1 integrin (P13612 34-1032): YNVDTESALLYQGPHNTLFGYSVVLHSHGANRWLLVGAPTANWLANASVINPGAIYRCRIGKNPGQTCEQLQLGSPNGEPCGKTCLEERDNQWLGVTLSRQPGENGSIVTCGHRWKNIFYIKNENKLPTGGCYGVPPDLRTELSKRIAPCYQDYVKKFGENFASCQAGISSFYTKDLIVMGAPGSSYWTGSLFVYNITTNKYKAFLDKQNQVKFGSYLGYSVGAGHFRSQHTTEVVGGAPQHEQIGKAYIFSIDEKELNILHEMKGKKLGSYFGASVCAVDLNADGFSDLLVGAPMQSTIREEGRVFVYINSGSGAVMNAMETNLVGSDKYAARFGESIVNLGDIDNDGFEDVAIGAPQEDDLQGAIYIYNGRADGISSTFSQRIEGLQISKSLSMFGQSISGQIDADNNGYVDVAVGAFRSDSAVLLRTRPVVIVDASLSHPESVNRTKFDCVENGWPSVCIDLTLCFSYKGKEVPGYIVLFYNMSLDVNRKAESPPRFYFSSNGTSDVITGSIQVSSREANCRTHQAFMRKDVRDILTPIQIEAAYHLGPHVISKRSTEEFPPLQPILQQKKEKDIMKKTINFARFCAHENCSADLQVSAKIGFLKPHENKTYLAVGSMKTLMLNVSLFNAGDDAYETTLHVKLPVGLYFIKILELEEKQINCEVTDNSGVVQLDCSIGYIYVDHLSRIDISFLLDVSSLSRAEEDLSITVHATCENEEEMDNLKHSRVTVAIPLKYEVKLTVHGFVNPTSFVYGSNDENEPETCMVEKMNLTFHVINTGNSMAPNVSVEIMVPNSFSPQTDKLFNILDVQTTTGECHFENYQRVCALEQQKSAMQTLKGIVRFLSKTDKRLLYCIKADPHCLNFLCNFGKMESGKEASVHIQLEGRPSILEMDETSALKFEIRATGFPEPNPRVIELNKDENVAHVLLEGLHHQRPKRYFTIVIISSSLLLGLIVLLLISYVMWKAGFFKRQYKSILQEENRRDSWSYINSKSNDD
Chain of α4β1 integrin (P05556 21-798): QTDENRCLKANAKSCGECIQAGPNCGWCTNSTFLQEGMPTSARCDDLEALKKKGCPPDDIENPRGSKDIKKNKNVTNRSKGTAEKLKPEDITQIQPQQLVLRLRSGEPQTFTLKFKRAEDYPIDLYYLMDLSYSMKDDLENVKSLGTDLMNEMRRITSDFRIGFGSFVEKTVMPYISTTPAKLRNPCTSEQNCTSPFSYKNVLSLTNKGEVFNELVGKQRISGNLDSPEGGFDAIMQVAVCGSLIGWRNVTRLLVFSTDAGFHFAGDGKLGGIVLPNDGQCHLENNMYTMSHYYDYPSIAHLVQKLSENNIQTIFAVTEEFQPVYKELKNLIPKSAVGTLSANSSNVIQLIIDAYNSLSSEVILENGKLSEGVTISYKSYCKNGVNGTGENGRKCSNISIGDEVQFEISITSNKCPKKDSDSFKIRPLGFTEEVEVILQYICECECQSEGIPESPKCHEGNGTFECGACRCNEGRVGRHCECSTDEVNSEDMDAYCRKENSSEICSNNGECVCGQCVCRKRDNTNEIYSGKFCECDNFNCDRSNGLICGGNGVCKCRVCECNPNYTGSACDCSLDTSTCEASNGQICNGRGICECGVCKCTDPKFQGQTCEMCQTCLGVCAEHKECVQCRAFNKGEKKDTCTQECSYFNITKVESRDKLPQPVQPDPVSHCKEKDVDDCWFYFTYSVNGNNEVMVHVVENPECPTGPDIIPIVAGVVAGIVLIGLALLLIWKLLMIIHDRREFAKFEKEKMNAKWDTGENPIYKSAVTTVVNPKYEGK
T1 sequence (P13612 34-1032): as the sequence (P13612 34-1032) above
T1 sequence (P26010 20-798): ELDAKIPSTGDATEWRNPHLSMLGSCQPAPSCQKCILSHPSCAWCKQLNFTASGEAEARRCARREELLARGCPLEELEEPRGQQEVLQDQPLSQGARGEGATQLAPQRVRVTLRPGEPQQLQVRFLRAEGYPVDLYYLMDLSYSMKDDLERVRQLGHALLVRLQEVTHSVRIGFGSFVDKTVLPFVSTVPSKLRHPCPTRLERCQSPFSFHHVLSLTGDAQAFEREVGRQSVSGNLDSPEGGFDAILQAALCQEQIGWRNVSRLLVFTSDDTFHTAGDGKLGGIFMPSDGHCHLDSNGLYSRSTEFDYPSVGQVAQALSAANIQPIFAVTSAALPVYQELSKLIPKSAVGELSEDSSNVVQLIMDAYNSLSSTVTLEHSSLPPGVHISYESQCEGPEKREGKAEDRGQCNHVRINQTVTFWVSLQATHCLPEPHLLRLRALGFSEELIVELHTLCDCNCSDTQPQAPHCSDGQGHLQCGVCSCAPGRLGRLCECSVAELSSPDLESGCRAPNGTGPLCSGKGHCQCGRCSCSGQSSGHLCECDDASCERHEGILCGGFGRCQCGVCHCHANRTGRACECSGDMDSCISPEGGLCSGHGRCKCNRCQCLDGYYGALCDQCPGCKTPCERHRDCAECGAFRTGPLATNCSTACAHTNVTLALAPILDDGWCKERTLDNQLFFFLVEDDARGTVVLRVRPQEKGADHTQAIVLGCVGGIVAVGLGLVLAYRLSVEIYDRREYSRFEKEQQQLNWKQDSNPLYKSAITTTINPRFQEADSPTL

| IC50 (α4β1 integrin) [nM] | Selectivity (α4β7 integrin [1]) | IC50 (α4β7 integrin [1]) [nM] | IC50 (α4β7 integrin [2]) [nM] | Structure (SMILES) |
| --- | --- | --- | --- | --- |
| 120 | 920 | 0.13 | 9.8 | Cn1c(=O)n(-c2ccc(C[C@H](NC(=O)c3c(F)cc(NS(=O)(=O)c4ccc(-c5ccnc(F)c5)cc4)cc3F)C(=O)O)cc2)c(=O)c2ccncc21 [Example 68, N-[2,6-Difluoro-4-({[4-(2-fluoropyridin-4-yl)phenyl]sulfonyl}amino)benzoyl]-4-(1-methyl-2,4-dioxo-1,4-dihydropyrido[3,4-d]pyrimidin-3(2H)-yl)-L-phenylalanine] |
| 550 | 210 | 2.6 | 13 | CNCc1ccc(S(=O)(=O)Nc2ccc(C(=O)N[C@@H](Cc3ccc(-n4c(=O)c5ccncc5n(C)c4=O)cc3)C(=O)O)c(F)c2)cc1 [Example 52, N-{2-Fluoro-4-[({4-[(methylamino)methyl]phenyl}sulfonyl)amino]benzoyl}-4-(1-methyl-2,4-dioxo-1,4-dihydropyrido[3,4-d]pyrimidin-3(2H)-yl)-L-phenylalanine] |
| 130 | 500 | 0.26 | 6.4 | Cn1c(=O)n(-c2ccc(C[C@H](NC(=O)c3c(F)cc(NS(=O)(=O)c4ccc(-c5ncccn5)cc4)cc3F)C(=O)O)cc2)c(=O)c2ccncc21 [Example 41, N-(2,6-Difluoro-4-{[(4-pyrimidin-2-yl-phenyl)sulfonyl]amino}benzoyl)-4-(1-methyl-2,4-dioxo-1,4-dihydropyrido[3,4-d]pyrimidin-3(2H)-yl)-L-phenylalanine] |
| 410 | 430 | 0.95 | 6.5 | Cn1ccc(=O)n(-c2ccc(C[C@H](NC(=O)c3c(F)cc(NS(=O)(=O)c4ccc(-n5ccnn5)cn4)cc3F)C(=O)O)cc2)c1=O [Example 73, N-[2,6-Difluoro-4-({[5-(1H-1,2,3-triazol-1-yl)pyridin-2-yl]sulfonyl}amino)benzoyl]-4-(3-methyl-2,6-dioxo-3,6-dihydropyrimidin-1(2H)-yl)-L-phenylalanine] |
| 210 | 380 | 0.55 | 11 | Cn1c(=O)n(-c2ccc(C[C@H](NC(=O)c3c(F)cc(NS(=O)(=O)c4ccc(-c5ccncc5)cc4)cc3F)C(=O)O)cc2)c(=O)c2ccncc21 [Example 67, N-(2,6-Difluoro-4-{[(4-pyridin-4-yl-phenyl)sulfonyl]amino}benzoyl)-4-(1-methyl-2,4-dioxo-1,4-dihydropyrido[3,4-d]pyrimidin-3(2H)-yl)-L-phenylalanine] |
| 740 | 260 | 2.8 | 24 | Cn1c(=O)n(-c2ccc(C[C@H](NC(=O)c3c(F)cc(NS(=O)(=O)c4ccc(-c5ccsc5)cc4)cc3F)C(=O)O)cc2)c(=O)c2ccncc21 [Example 53, N-[2,6-Difluoro-4-({[4-(3-thienyl)phenyl]sulfonyl}amino)benzoyl]-4-(1-methyl-2,4-dioxo-1,4-dihydropyrido[3,4-d]pyrimidin-3(2H)-yl)-L-phenylalanine] |
| 370 | 470 | 0.79 | 19 | COc1ccc2c(c1)c(=O)n(-c1ccc(C[C@H](NC(=O)c3c(F)cc(NS(=O)(=O)c4ccc(C(=O)NC5CC5)cc4)cc3F)C(=O)O)cc1)c(=O)n2C [Example 78, N-{4-[({4-[(Cyclopropylamino)carbonyl]phenyl}sulfonyl)amino]-2,6-difluorobenzoyl}-4-(6-methoxy-1-methyl-2,4-dioxo-1,4-dihydroquinazolin-3(2H)-yl)-L-phenylalanine] |
| 520 | 1300 | 0.39 | 11 | Cc1cc(-c2ccc(S(=O)(=O)Nc3cc(F)c(C(=O)N[C@@H](Cc4ccc(-n5c(=O)c6c(ncn6C)n(C)c5=O)cc4)C(=O)O)c(F)c3)cc2)ccn1 [Example 74, N-[2,6-Difluoro-4-({[4-(2-methylpyridin-4-yl)phenyl]sulfonyl}amino)benzoyl]-4-(3,7-dimethyl-2,6-dioxo-2,3,6,7-tetrahydro-1H-purin-1-yl)-L-phenylalanine] |
| 910 | 410 | 2.2 | 22 | Cn1cnc2c1c(=O)n(-c1ccc(C[C@H](NC(=O)c3c(F)cc(NS(=O)(=O)c4ccc(-n5cccc5)cc4)cc3F)C(=O)O)cc1)c(=O)n2C [Example 76, N-[2,6-Difluoro-4-({[4-(1H-pyrrol-1-yl)phenyl]sulfonyl}amino)benzoyl]-4-(3,7-dimethyl-2,6-dioxo-2,3,6,7-tetrahydro-1H-purin-1-yl)-L-phenylalanine] |
| 310 | 820 | 0.38 | 4.2 | Cn1cnc2c1c(=O)n(-c1ccc(C[C@H](NC(=O)c3c(F)cc(NS(=O)(=O)c4ccc(-c5ccncc5)cc4)cc3F)C(=O)O)cc1)c(=O)n2C [Example 75, N-(2,6-Difluoro-4-{[(4-pyridin-4-yl-phenyl)sulfonyl]amino}benzoyl)-4-(3,7-dimethyl-2,6-dioxo-2,3,6,7-tetrahydro-1H-purin-1-yl)-L-phenylalanine] |
